Columns and labels:
[1] = system: MCF7 (human breast carcinoma) cells; test: Cell growth assay (XTT), MCF7; type: cell-based; conditions: Homo sapiens, MCF7; 72 h drug exposure, XTT; read-out: Antiproliferative activity IC50 MCF7
How it was run: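 Cells (1.5 × 10^4 cells/mL for MCF7, HeLa, HEK293; 3 × 10^4 cells/mL for HT-29) attached 24 h, then treated 72 h at 37 °C, 5% CO2. Screened at 1 µM; IC50 versus untreated controls from 10^−5 to 10^−10 M by nonlinear fit. XTT/PMS absorbance at 450 nm after 4 h (MCF7, HeLa) or 6 h (HT-29, HEK293); HT-29 with 10 µM verapamil.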

[2] = system: microtubule network of HeLa cells; test: Immunofluorescence of microtubule network, HeLa; type: cell-based, human; conditions: 175 nM, 72 h, confocal microscopy
Experimental: MCF7, HeLa, and HT-29 cells were grown on round glass coverslips coated with poly-L-lysine (12 mm diameter). To reach appropriate cell confluence, coverslips were manipulated in 6-well plates (3 coverslips/well) seeding 3 ml/well of cells in the exponential growth phase at 2 × 10^4 cells/mL. After 24 h incubation, cells were treated with compound 25 at 175 nM and incubated for 72 h. Cells were washed with PBS, fixed with 4% formaldehyde in PBS for 10 min, permeabilized with 0.5% Triton X-100 (Boehringer Mannheim, Ingelheimam Rhein, Germany) in PBS for 10 min, and blocked with 10% BSA in PBS for 30 min. Then, coverslips were incubated with anti-α-tubulin mouse monoclonal antibody (diluted 1:200 in 3% BSA/PBS) (Sigma-Aldrich Co.) and anti-SQSTM1/p62 rabbit monoclonal antibody (diluted 1:100 in 3% BSA/PBS) (Abcam) for 1 h 30 min. After PBS washing, coverslips were incubated with fluorescent secondary antibodies Alexa Fluor 488 goat anti-mouse IgG and Alexa Fluor 594 anti-rabbit (both diluted 1:400 in 1% BSA/PBS) (Molecular Probes, Invitrogen, Thermo Fischer Scientific) for 1 h in darkness. […] Cells were analysed by confocal microscopy using a LEICA SP5 microscope DMI-6000V model coupled to a LEICA LAS AF software computer.

p-62 in HeLa cells = test: Western blot of autophagosome marker p-62, HeLa; type: cell-based, human; conditions: 175 nM, 24 h
Experimental: (§1) MCF7, HeLa and HT-29 cells in an exponential growth phase at 2 × 10^4 cells/mL were seeded in Petri dishes (20 × 100 mm) (10 ml/dish). After 24 h incubation, cells were treated with compound 25 at 175 nM, and the levels of p-62 in treated and untreated cells were measured at 24 h post-treatment. The culture medium was removed, cells were washed with PBS and resuspended in 1 ml lysis buffer (50 mM Tris, 130 mM NaCl, 1 mM EDTA, 1% Triton X-100) containing protease inhibitors (Complete, Roche Applied Science, Indianapolis). Cells were harvested and incubated with lysis buffer for 30 min at 4 °C in constant agitation. Cell extracts were centrifuged at 12,000 rpm for 15 min at 4 °C and the supernatants were stored at −80 °C. Protein concentrations were determined using Bradford (BioRad, Hercules, CA) method taking BSA (Bovine Serum Albumin) as standard. Protein extracts were used for electrophoresis mixing with loading buffer (4% SDS, 0.05% bromophenol blue, 20% glycerine, 2% β-mercaptoethanol, and Tris 100 mM at pH 6.8). Proteins were then denatured at 95 °C for 7 min. Protein samples (50 μg/lane) were subjected to electrophoresis on 8% acrylamide gel and SDS-PAGE running buffer at constant voltage (140 V). Then, acrylamide gels were transferred to a PVDF membrane (Merck Millipore, Burlington, Massachusetts, USA) using a semi-dry transfer system for 30 min at constant voltage (15 V). […]

p-62 in HT-29 cells = test: Western blot of autophagosome marker p-62, HT-29; type: cell-based, human; conditions: HT-29, 175 nM, 24 h
Experimental: as §1

COc1ccc(S(=O)(=O)N(CC#N)c2cc(OC)c(Br)cc2OC)cc1 [Compound 25, N-(4-bromo-2,5-dimethoxyphenyl)-N-(cyanomethyl)-4-methoxybenzenesulphonamide]
IC50 [1]: 86 nM
Effect on microtubule network [2]: disrupted the microtubule network
p-62 levels (p-62 in HeLa cells): almost complete reduction in the expression of p-62
p-62 levels (p-62 in HT-29 cells): almost complete reduction in the expression of p-62
